Results reported in patent US20250325531A1, “TREATMENT OF SYSTOLIC DYSFUNCTION” (MyoKardia, Inc., priority 2024, published 2025).

Assay: Food effect on pharmacokinetics, 200 mg as 25 mg tablets, fed vs fasted, healthy volunteers
Format: in vivo, human
From the text: This example describes a clinical study for establishing, in healthy volunteers, the effect of a high fat, high caloric meal on the PK profile of Compound I, as compared to administration of the drug in the fasted state. The study also was intended to determine the safety and tolerability after a single oral dose of Compound I in the fed and fasted state in healthy volunteers. The measurements of PK, PD, and other clinical parameters were done as described in Example 1 above.
This study was an open-label, randomized, two-period cross-over study in healthy volunteers aged 18-55 years. Subjects were screened up to 28 days before the first treatment period. Subjects were admitted to the clinical site on Day −1 (the day before dosing) of Period 1. Approximately half of the subjects randomly received a single dose of Compound I on Day 1 of the first treatment period after the ingestion of a high fat, high caloric breakfast, and the remainder were dosed in the fasted state. Any subject with a predose resting HR ≥95 beats per minute (bpm) was considered ineligible and was not treated. Any subjects with an acute gastrointestinal disorder which could impact drug/food absorption (e.g., vomiting, diarrhea) were rescheduled. Subjects were confined to the clinic until Day 4, and discharged after the 72-hour postdose PK and laboratory samples and vital signs were obtained. After a washout between dosing from 7 to 10 days (or, after consultation with the Investigator, up to 21 days after initial dosing if the subject was unable to attend within the 7 to 10-day window), the subject was admitted for Period 2. The sequence of fed/fasted versus fasted/fed periods was randomized. Subjects returned after the second treatment period for a safety follow-up visit on Day 7 (+1 day).
In both treatment periods, Compound I was administered with 240 mL of water. In the fasted state, the subjects fasted for 10 hours before and for 4 hours after the administration of Compound I. Water could have been ingested up to 1 hour before and after 1 hour post dosing. In the fed state, the subjects fasted for 10 hours before and for 4 hours after the ingestion of the meal, but could have ingested water up to 1 hour before and 1 hour after dosing. In the fed state, the subjects started ingesting the high fat, high caloric meal within 30 minutes prior to Compound I administration and finished the meal within 30 minutes. The meal contained approximately 800 to 1000 calories with about 50% of the calories from fat. The meal consisted of approximately 150 calories from protein, 250 calories from carbohydrate, and 500-600 calories from fat. An example of the meal was a breakfast consisting of two eggs fried in butter, two strips of bacon, two slices of buttered toast, 4 ounces of hash brown potatoes, and 8 ounces of whole milk.
Each subject received two oral doses of 200 mg of Compound I formulated as 25 mg tablets (8 tablets) in a randomized, cross-over fashion, once in the fasted state and the other time after the ingestion of a high fat, high caloric breakfast. There was a washout of between 7 and 21 days between the administrations of the two doses. The Compound I drug substance was a crystalline, free-base, synthetic molecule with a molecular weight of 435.4.
Plasma drug concentrations were measured as described in Example 1 above. Blood samples to measure Compound I plasma concentration were collected at various time points, including on Day 1 predose (1 hour prior to dosing) and at 1 (±5 min), 2 (±5 min), 3 (±5 min), 4 (═10 min), 5 (±10 min), 6 (±10 min), 9 (±20 min), 12 (±20 min), 18 (±30 min), 24 (±30 min), 36 (±30 min), 48 (±30 min), and 72 (±30 min) hours postdose on both treatment periods.
To assess the effect of food on the PK of Compound I, the two one-sided t-test procedure was used to construct 90% CI around the geometric mean ratios (fed/fasted) of plasma AUCinf, AUClast, and Cmax. […]

[1] = 200 mg, subjects who completed both periods (N = 9)
[2] = 200 mg, subjects who completed both fasted and fed periods (N = 9)
[3] = single oral 200 mg, Fasted (N = 10)
[4] = single oral 200 mg, Fed (N = 10)

Cn1cc(S(=O)(=O)[C@@](C)(F)C2CCN(C(=O)Nc3ccon3)CC2)c(C(F)F)n1 [Compound I, (R)-4-(1-((3-(difluoromethyl)-1-methyl-1H-pyrazol-4-yl)sulfonyl)-1-fluoroethyl)-N-(isoxazol-3-yl) piperidine-1-carboxamide]
exposure (Cmax) higher in fed vs fasted state (200 mg): ~60% | AUClast, Fasted LSGM (200 mg, N = 11): 57400 ng·h/mL | Cmax, Fasted LSGM (200 mg, N = 11): 2300 ng/mL | Cmax, Fed LSGM (200 mg, N = 11): 3640 ng/mL | AUCinf, Geometric Mean Ratio - Fed/Fasted (200 mg, N = 11, 90% CI 130.30-182.67): 154.28 % of Reference | AUClast, Geometric Mean Ratio - Fed/Fasted (200 mg, N = 11, 90% CI 131.11-180.92): 154.02 % of Reference | Cmax, Geometric Mean Ratio - Fed/Fasted (200 mg, N = 11, 90% CI 137.11-182.33): 158.11 % of Reference | Median (range) Tmax (200 mg, fed state): 5.5 h | AUC0-t geometric mean ratio (fed/fasted) [1]: 153.20% | AUCinf geometric mean ratio (fed/fasted) [1]: 153.63% | Cmax geometric mean ratio (fed/fasted) [1]: 156.43% | AUCinf, Geometric Mean Ratio - Fed/Fasted [2]: 153.63 % of Reference | AUClast, Fasted LSGM [2]: 59000 ng·h/mL | AUClast, Geometric Mean Ratio - Fed/Fasted [2]: 153.20 % of Reference | Cmax, Fasted LSGM [2]: 2370 ng/mL | Cmax, Fed LSGM [2]: 3700 ng/mL | Cmax, Geometric Mean Ratio - Fed/Fasted [2]: 156.43 % of Reference | MRT, Mean [3]: 22.55 h | MRT, Median [3]: 23.86 h | T1/2, z, Mean [3]: 14.28 h | AUCinf, Median [4]: 93950 ng·h/mL | AUClast, Geometric Mean [4]: 88400 ng·h/mL | AUClast, Median [4]: 89310 ng·h/mL | Cmax Geometric Mean [4]: 3644 ng/mL | T1/2, z, Geometric Mean [4]: 13.56 h
